Laboratory results: patent US7482308B2, “Difluoromethanesulfonyl anilide derivatives useful as herbicides” (Bayer CropScience AG, priority 2004, dated 2009)

How the values were obtained:
Type in all cases: in vivo
[1] = tested on: annual broad-leaved weeds; assay: Herbicidal effect against paddy field weeds, spray at two leaf-stage of rice (Test Example 5); settings: 50 g ai/ha, evaluated 3 weeks after treatment
Source text: (§1) In a greenhouse seeds of Scirpus juncoides Roxburgh, Monochoria vaginalis Presi, Cyperus difformis L., annual broad-leaved weeds (Lindernia procumbens Philcox, Rotala indica Koehne, Elatine triandra Schk, Ammannia multiflora Roxb.) and rice (var.: Nipponbare and RD-23) were inoculated in a 500 cm^2 pot filled with paddy field soil. Then water was poured to a depth of about 0 to about 0.5 cm, to be a wet condition. At two leaf-stage of rice, a prescribed, diluted solution of the formulation of each active compound, prepared in the same manner as the above-mentioned Test Example 1, was sprayed over the pots with plants. At 2 days after the treatment, the water depth of 3 cm was maintained and the herbicidal effect and rice injury was evaluated at 3 weeks and 2 weeks after the treatment, respectively.
(§2) The herbicidal effect and rice injury were rated 100% in the case of complete death and as 0% in the case of no effect or injury. In case of showing higher than 80% herbicidal effect and less than 20% injury, it is evaluated as practical as rice herbicide.

[2] = tested on: Scirpus juncoides Roxburgh; assay: as above; settings: 50 g ai/ha, evaluated 3 weeks after treatment
Source text: as §1, §2

Cyperus difformis L. = assay: as above; settings: 50 g ai/ha, evaluated 3 weeks after treatment
Source text: as §1, §2

[3] = tested on: Monochoria vaginalis Presi; assay: as above; settings: 50 g ai/ha, evaluated 3 weeks after treatment
Source text: as §1, §2

[4] = tested on: annual broad-leaved weeds; assay: Test for herbicidal effect against paddy field weeds (Test Example 1); settings: examined 3 weeks after treatment
Protocol: (§3) Preparation of Formulation of the Active Compound
(§4) • Carrier: DMF 5 parts by weight • Emulsifier: Benzyloxy polyglycol ether 1 part by weight
(§5) A formulation of an active compound is obtained as an emulsifiable concentrate by mixing 1 part by weight of the active compound with the above-mentioned amount of the carrier and emulsifier. A prescribed amount of the formulation is diluted with water.
(§6) In a green house seeds or tubers of Scirpus juncoides Roxburgh, Monochoria vaginalis Presi, annual broad-leaved weeds (Lindemia procumbens Philcox, Rotala indica Koehne, Elatine triandra Schk, Ammannia multiflora Roxb., etc.), Cyperus serotinus Rottboel were inoculated in a 500 cm^2 pot filled with paddy field soil. Then water was poured to a depth of about 2-3 cm. Five days and 13 days after inoculation, a prescribed, diluted solution of the formulation of each active compound, prepared according to the aforementioned preparation method, was applied to the surface of water. After the treatment the water depth of 3 cm was maintained and the herbicidal effect was examined after 3 weeks from the treatment.
(§7) The herbicidal effect was rated 100% in the case of complete death and as 0% in the case of no herbicidal effect. In case of showing higher than 80% herbicidal effect, it is evaluated as practical as herbicide.

[5] = tested on: Cyperus serotinus Rottboel; assay: as above; settings: examined 3 weeks after treatment
Protocol: as §3, §4, §5, §6, §7

[6] = tested on: Scirpus juncoides Roxburgh; assay: as above; settings: examined 3 weeks after treatment
Protocol: as §3, §4, §5, §6, §7

[7] = tested on: Monochoria vaginalis Presi; assay: as above; settings: examined 3 weeks after treatment
Protocol: as §3, §4, §5, §6, §7

[8] = tested on: direct-seedling rice var. Nipponbare; assay: Test for phytotoxicity to direct-seedling rice (Test Example 5); settings: 50 g ai/ha; spray at two leaf-stage of rice; evaluated 2 weeks after treatment
Source text: as §1, §2

[9] = tested on: direct-seedling rice var. RD-23; assay: as above; settings: 50 g ai/ha; spray at two leaf-stage of rice; evaluated 2 weeks after treatment
Source text: as §1, §2

[10] = tested on: sulfonylurea resistant Scirpus juncoides Roxburgh (collected in Iwamizawa area, Hokkaido); assay: Test for herbicidal effect against sulfonylurea resistant weeds (Test Example 3); settings: applied at beginning of emergence, examined 3 weeks after treatment
Source text: (§8) In a green house seeds of Scirpus juncoides Roxburgh (collected in Iwamizawa area, Hokkaido), Lindernia procumbens Philcox (collected in Kazo area, Saitama Pref.), Lindernia procumbens Philcox (collected in Higashi-Hiroshima area, Hiroshima Pref.), Elatine triandra Schk (collected in Kazo area, Saitama Pref.), all of which were confirmed as sulfonylurea resistant, were inoculated in a 20 cm^2 cup filled with paddy field soil. Then water was poured to a depth of about 2 to 3 cm. At the beginning of emergence of each weed, a prescribed, diluted solution of the formulation of each active compound prepared in the same manner as the above-mentioned Test Example 1 was applied to the surface of water. After the treatment the water depth of 3 cm was maintained and the herbicidal effect was examined after 3 weeks from the treatment. The evaluation of the herbicidal effect was conducted in the same manner as the above-mentioned Test Example 1. In case of showing higher than 80% herbicidal effect, it is evaluated as practical as herbicide. In consideration of the possibility that the biological properties including herbicide resistance of the plants grown in different areas might be different, sulfonylurea resistant Lindernia procumbens Philcox collected in two different areas were used in the present tests. The study results with the compounds No. 1, 3, 11 and 17 and the comparative compound No. C-1 as specific examples are shown in the following Table 6.

[11] = tested on: sulfonylurea resistant Lindernia procumbens Philcox (collected in Kazo area, Saitama Pref.); assay: as above; settings: applied at beginning of emergence, examined 3 weeks after treatment
Source text: as §8

[12] = tested on: transplanted rice (var. Nipponbare); assay: Test for phytotoxicity to transplanted rice (Test Example 4); settings: 60 g ai/ha, application 5 days after transplanting, examined 2 weeks after treatment; for phytotoxicity to transplanted rice depth 0 cm: planting depth 0 cm; for phytotoxicity to transplanted rice depth 0.5 cm: planting depth 0.5 cm; for phytotoxicity to transplanted rice depth 2 cm: planting depth 2 cm
Protocol: The phytotoxicity to transplanted rice was evaluated under the conditions with more shallow planting depths than usual depth of 2 cm, simulating the severe condition for herbicides to cause rice injury in the paddy. In a greenhouse 2 to 2.5 leaf-stage of rice (var. Nipponbare) was transplanted at three different depths, in a 1000 cm^2 pot filled with paddy field soil. Then water was poured to a depth of about 2 to about 3 cm. Five days after transplanting, a prescribed, diluted solution of the formulation of each active compound, prepared in the same manner as the above-mentioned Test Example 1, was applied to the surface of water. After the treatment the water depth of 3 cm was maintained and the rice injury was examined after 2 weeks from the treatment. The rice injury was rated 100% in the case of complete death and as 0% in the case of no injury. In case of showing less than 20% injury, it is evaluated as practical as rice herbicide.

[13] = tested on: annual broad-leaved weeds; assay: Test for residual effectiveness against paddy field weeds (Test Example 2); settings: 60 g ai/ha; period of maintaining herbicidal effect of higher than 80%
Source text: (§9) In a green house a 1000 cm^2 pot was filled with paddy field soil and water was poured to a depth of about 2 to 3 cm. A prescribed, diluted solution of the above-mentioned Test Example 1, was applied to the surface of water. After the prescribed time after the treatment (just after treatment, 1 week, 2 weeks, 3 weeks, 4 weeks, 5 weeks, 6 weeks and 7 weeks after treatment), seeds or tubers of the weeds to be tested Scirpus juncoides Roxburgh, Monochoria vaginalis Presi, annual broad-leaved weeds (Lindernia procumbens Philcox, Rotala indica Koehne, Elatine triandra Schk, Ammannia multiflora Roxb., etc.), Cyperus serotinus Rottboel and Sagittaria pygmaea Miq. were inoculated. Three weeks after the inoculation each herbicidal effect was examined.
(§10) The evaluation of the residual effectiveness was shown as the period (number of weeks) of maintaining herbicidal effect of higher than 80%, after the evaluation of herbicidal effect had been conducted in the similar manner as the above-mentioned Test Example 1.

Sagittaria pygmaea Miq. = assay: as above; settings: 60 g ai/ha; period of maintaining herbicidal effect of higher than 80%
Source text: as §9, §10

[14] = tested on: Scirpus juncoides Roxburgh; assay: as above; settings: 60 g ai/ha; period of maintaining herbicidal effect of higher than 80%
Source text: as §9, §10

[15] = tested on: Monochoria vaginalis Presi; assay: as above; settings: 60 g ai/ha; period of maintaining herbicidal effect of higher than 80%
Source text: as §9, §10

[16] = 30 g ai/ha, application 5 days after inoculation
[17] = 30 g ai/ha, application 13 days after inoculation
[18] = 60 g ai/ha, application 5 days after inoculation
[19] = 60 g ai/ha, application 13 days after inoculation

SMILES | herbicidal effect broad-leaved weeds [1] [%] | herbicidal effect Scirpus juncoides [2] [%] | herbicidal effect Cyperus difformis L. (Cyperus difformis L.) [%] | herbicidal effect Monochoria vaginalis [3] [%] | herbicidal effect broad-leaved weeds [4, 16] [%] | herbicidal effect broad-leaved weeds [4, 17] [%] | herbicidal effect Cyperus serotinus [5, 16] [%] | herbicidal effect Cyperus serotinus [5, 17] [%] | herbicidal effect Scirpus juncoides [6, 16] [%] | herbicidal effect Scirpus juncoides [6, 17] [%] | herbicidal effect Monochoria vaginalis [7, 16] [%] | herbicidal effect Monochoria vaginalis [7, 17] [%] | Phytotoxicity to direct-seedling rice Nipponbare [8] [%] | Phytotoxicity to direct-seedling rice RD-23 [9] [%] | herbicidal effect against sulfonylurea resistant weeds Scirpus juncoides (collected in Iwamizawa area, Hokkaido) ([10]; 30 g ai/ha) [%] | herbicidal effect against sulfonylurea resistant weeds Scirpus juncoides (collected in Iwamizawa area, Hokkaido) ([10]; 60 g ai/ha) [%] | herbicidal effect against sulfonylurea resistant weeds Lindernia procumbens (collected in Kazo area, Saitama Pref.) ([11]; 30 g ai/ha) [%] | herbicidal effect against sulfonylurea resistant weeds Lindernia procumbens (collected in Kazo area, Saitama Pref.) ([11]; 60 g ai/ha) [%] | phytotoxicity to transplanted rice depth 0 cm [12] [%] | phytotoxicity to transplanted rice depth 0.5 cm [12] [%] | other results
COc1cc(OC)nc(C(O)c2cccc(Cl)c2NS(=O)(=O)C(F)F)n1 (centres unmarked) [Compound 3, 2-chloro-6-[(4,6-dimethoxypyrimidin-2-yl)hydroxymethyl]-N-difluoromethanesulfonanilide] | 100 | 100 | 100 | 100 | 100 | 100 | 100 | 100 | 100 | 100 | 100 | 100 | 20 | 10 | 100 | 100 | 100 | 100 | – | – | –
COc1cc(OC)nc(Cc2cccc(Cl)c2NS(=O)(=O)C(F)F)n1 [Compound 11, 2-chloro-6-[(4,6-dimethoxypyrimidin-2-yl)methyl]-N-difluoromethanesulfonanilide] | 100 | 90 | 100 | 100 | – | – | – | – | – | – | – | – | 10 | 10 | 100 | 100 | 100 | 100 | 15 | 15 | herbicidal effect broad-leaved weeds [4, 18]: 100%; herbicidal effect broad-leaved weeds [4, 19]: 100%; herbicidal effect Cyperus serotinus [5, 18]: 100%; herbicidal effect Cyperus serotinus [5, 19]: 95%; herbicidal effect Scirpus juncoides [6, 18]: 100%; herbicidal effect Scirpus juncoides [6, 19]: 100%; herbicidal effect Monochoria vaginalis [7, 18]: 100%; herbicidal effect Monochoria vaginalis [7, 19]: 100%; phytotoxicity to transplanted rice depth 2 cm [12]: 10%; period showing sufficient residual herbicidal effectiveness broad-leaved weeds [13]: 4 week; period showing sufficient residual herbicidal effectiveness Sagittaria pygmaea (Sagittaria pygmaea Miq.): 4 week; period showing sufficient residual herbicidal effectiveness Scirpus juncoides [14]: 4 week; period showing sufficient residual herbicidal effectiveness Monochoria vaginalis [15]: 3 week
COc1cc(OC)nc(C(=O)c2cccc(F)c2NS(=O)(=O)C(F)F)n1 [Compound 17, 2-fluoro-6-[(4,6-dimethoxypyrimidin-2-yl)carbonyl]-N-difluoromethanesulfonanilide] | – | – | – | – | 100 | 100 | 100 | 100 | 100 | 100 | 100 | 100 | – | – | 100 | 100 | 95 | 100 | – | – | –
COCc1cccc(C(O)c2nc(OC)cc(OC)n2)c1NS(=O)(=O)C(F)F (centres unmarked) [Compound C-2, reference compound] | 100 | 90 | 100 | 100 | – | – | – | – | – | – | – | – | 50 | 30 | – | – | – | – | 40 | 30 | phytotoxicity to transplanted rice depth 2 cm [12]: 30%; period showing sufficient residual herbicidal effectiveness broad-leaved weeds [13]: 2 week; period showing sufficient residual herbicidal effectiveness Sagittaria pygmaea (Sagittaria pygmaea Miq.): 3 week; period showing sufficient residual herbicidal effectiveness Scirpus juncoides [14]: 2 week; period showing sufficient residual herbicidal effectiveness Monochoria vaginalis [15]: 2 week
